Several values for one entry are separate records, joined by “and”; a condition that tells them apart may be missing. Equal values may be shown once.
Key:
[1] = target: D(2) dopamine receptor (Rattus norvegicus, UniProt P61169)
[2] = target: D(2) dopamine receptor (Oryctolagus cuniculus, UniProt G1T1Q0)
D(2) dopamine receptor (Oryctolagus cuniculus, UniProt G1T1Q0), sequence (G1T1Q0 whole entry): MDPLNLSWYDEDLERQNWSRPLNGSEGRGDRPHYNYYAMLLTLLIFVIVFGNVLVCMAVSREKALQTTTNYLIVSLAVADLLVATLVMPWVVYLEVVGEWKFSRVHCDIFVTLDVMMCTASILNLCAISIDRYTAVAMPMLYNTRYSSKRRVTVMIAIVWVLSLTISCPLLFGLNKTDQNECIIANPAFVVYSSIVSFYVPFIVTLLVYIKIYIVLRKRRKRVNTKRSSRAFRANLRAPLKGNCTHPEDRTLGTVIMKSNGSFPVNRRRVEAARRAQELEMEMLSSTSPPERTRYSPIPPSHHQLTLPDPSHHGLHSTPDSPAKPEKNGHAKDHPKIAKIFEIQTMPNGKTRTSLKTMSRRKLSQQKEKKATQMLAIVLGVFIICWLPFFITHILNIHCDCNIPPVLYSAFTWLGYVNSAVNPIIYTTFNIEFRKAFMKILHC

D(2) dopamine receptor (Rattus norvegicus, UniProt P61169), sequence (P61169 whole entry): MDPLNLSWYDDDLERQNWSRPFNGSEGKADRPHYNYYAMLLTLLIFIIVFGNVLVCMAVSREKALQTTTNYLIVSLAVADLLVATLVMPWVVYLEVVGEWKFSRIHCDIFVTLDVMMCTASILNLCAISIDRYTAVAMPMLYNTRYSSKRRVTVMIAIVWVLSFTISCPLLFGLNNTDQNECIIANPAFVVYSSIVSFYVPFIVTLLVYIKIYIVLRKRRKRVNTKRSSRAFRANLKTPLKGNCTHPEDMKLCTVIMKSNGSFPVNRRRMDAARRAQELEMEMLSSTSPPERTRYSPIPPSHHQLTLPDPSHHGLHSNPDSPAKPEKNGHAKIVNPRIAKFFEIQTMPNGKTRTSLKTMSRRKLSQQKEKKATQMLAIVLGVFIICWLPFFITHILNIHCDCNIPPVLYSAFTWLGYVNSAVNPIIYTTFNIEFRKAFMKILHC

CCCN(CCC)CCc1ccc(O)c(O)c1 was tested, and the Ki [1] was 130 nM and the Ki [2] was 37 nM and 85 nM.

For O=c1[nH]c2ccccc2n1CCCN1CCC(n2c(=O)[nH]c3cc(Cl)ccc32)CC1, the Ki [2] was 3.3 nM and 4.9 nM.

NCCc1ccc(O)c(O)c1 was tested, and the Ki [2] was 250 nM and 200 nM.

For O=C(c1ccc(F)cc1)C1CCN(CCn2c(=O)[nH]c3ccccc3c2=O)CC1 [3-(2-{4-[(4-fluorophenyl)carbonyl]piperidin-1-yl}ethyl)-1,2,3,4-tetrahydroquinazoline-2,4-dione], the Ki [1] was 720 nM and 580 nM and the Ki [2] was 880 nM.

Nc1nc2c(ncn2[C@@H]2O[C@H](COP(=O)(O)OP(=O)(O)OP(=O)(O)O)[C@@H](O)[C@H]2O)c(=O)[nH]1 [Dopamine+ (GTP+)] was tested, and the Ki [1] was 1300 nM and 2900 nM.

In the case of Cc1ccc(N(CC2=NCCN2)c2cccc(O)c2)cc1 [SMR000059054], the Ki [1] is reported as 1500 nM and 750 nM and the Ki [2] is reported as 1200 nM.

Source: BindingDB's records for PubMed 6655559 (University of California, 1983)
